Values joined by “and” are separate entries in the source; they are usually repeats but may differ in a detail not shown here. Identical values can stand only once.
Assays:
[1] = test system: mice with acute lung injury caused by intratracheal instillation of lipopolysaccharide; test: Acute lung injury caused by lung exposure to bacterial endotoxin (intratracheal instillation of LPS); format: in vivo, ICR mice; conditions: for Content of TNF-α in a lung tissue homogenate (% of Model) / Area percentage of alveolar cells (%) / Lung index (%): 6 h after intratracheal LPS; for Area percentage of alveolar cells (%): H&E lung sections; for Change multiple of COX-2 / Change multiple of IL-1β / Change multiple of IL-6 / Change multiple of TNF-α / Change multiple of iNOS: lung tissue RT-PCR; for Body weight (Day 1) / Body weight (Day 2) / Body weight (Day 3): intratracheal LPS model, in g (unit assumed)
Experimental: Grouping, administration and modeling of animals: Male ICR mice were used as experimental animals, which were randomly divided into a control group, a model group, a positive administration group and administration groups according to the body weight. The control group and the model group were administered with a solvent by intraperitoneal injection (the solvent was prepared from DMSO, Kolliphor HS15 and Saline at a ratio of 1:2:7), the positive administration group was administered with 5 mg/kg dexamethasone by intraperitoneal injection, and the administration groups were administered with (+)3C-20 at a concentration of 10 mg/kg and 50 mg/kg, respectively, by intraperitoneal injection. The dexamethasone and the (+)3C-20 were dissolved in the above solvent and were clear and transparent. The administration was continued for 3 days. 2 h after the last administration, the mice were anesthetized with 2.5% isoflurane, necks were disinfected, cortices of the necks were cut, and tracheae were separated. All other groups were administered with 50 μL of 10 mg/mL LPS (LPS dissolved in Saline) at a dose of 20 mg/kg by instillation while the control group was administered with 50 μL of Saline by intratracheal instillation (it.), and the cortices were sutured. 6 h after the instillation of LPS, the mice were sacrificed, and serum and lung tissues were taken for later use. Body weight and lung index: The mice were weighed and randomly divided on day 1 and continuously weighed for 3 days before administration. 2 h after the last administration, the mice were administered with 50 μL of […] LPS by intratracheal instillation. 6 h later, the mice were dissected, and the lungs were taken and weighed.
On day 3, 6 h after the intratracheal instillation of LPS, a part of the mice were subjected to perfusion with PBS and treated with paraformaldehyde to fix the right lobe of the lungs, another part of the mice were dissected to obtain lungs, and the lungs were frozen with liquid nitrogen for later use. The fixed right lungs were stained with hematoxylin-eosin (H&E) after dehydration, paraffin embedding and sectioning. 40 mg of the frozen lungs were cut, 300 μL of an RIPA lysis buffer was added thereto and homogenized by starting for 45 s and stopping for 15 s at a frequency of 60 Hz in 4 cycles for full lysis, and then centrifuged at 12,000 rpm at 4° C. A supernatant was taken, the protein concentration was calibrated and adjusted with a BCA protein assay kit, and then the level of an inflammatory factor TNF-α in lung tissue homogenates of various groups was detected by a commercial TNF-α ELISA kit. Results are shown in Table 10, FIG. 10-1 and FIG. 10-2.
A small amount of frozen lung tissues were taken, a Trizol lysis reagent was added thereto and fully ground, RNA was extracted according to an operation instruction of an RNA extraction kit, and the expression of inflammation related genes in the lung tissues was detected by an RT-PCR technology. Experimental results are shown in Table 11, FIG. 11-1 and FIG. 11-2.

[2] = test system: mice with acute lung injury caused by intratracheal instillation of lipopolysaccharide; test: Survival rate of mice with acute lung injury caused by intratracheal instillation of LPS; format: in vivo, ICR mice; conditions: 50 mg/kg, LPS 20 mg/kg it, checked up to 72 h
Experimental: Grouping and administration of animals: 45 male ICR mice were randomly divided into 5 groups according to the body weight, including a control group, a model group, a positive dexamethasone (5 mg/kg) group, a (+)3C-20 (10 mg/kg) group and a (+)3C-20 (50 mg/kg) group, with 9 mice in each group. Drug preparation, an administration method and a modeling method were the same as those in Example 7. With the time of intratracheal instillation of LPS as 0 h, the survival state of the mice was checked at the time points of 4 h, 12 h, 16 h, 20 h, 24 h, 36 h, 48 h, 60 h and 72 h, and a survival curve was drawn based on statistics. Results are shown in FIG. 13 (where compared with LPS (20 mg/kg), ***P is less than 0.001).

RAW264.7 cells = test: Cytotoxicity test, CCK-8 cell viability of RAW264.7 cells (24 h); format: cell-based, mice; conditions: 10 μM, RAW264.7 cell viability
Experimental: RAW264.7 cells were inoculated into a 96-well plate at a density of 1×10^5 per well. When the cell density was 70%-80%, the RAW264.7 cells were pretreated with 10 mM working solutions prepared from 18 balasubramide derivatives at a final concentration of 10 μM for 24 h, and then the cell viability was determined by a CCK-8 method.

[3] = test system: bone marrow derived macrophages (BMDMs); test: CCK-8 cell viability of bone marrow derived macrophages; format: cell-based, C57BL/6J mice; conditions: BMDM cell viability
Experimental: (1) Collection of bone marrow derived macrophages (BMDMs): C57BL/6J mice were sacrificed by dislocation of cervical vertebra, completely soaked and sterilized with 75% ethanol and placed faceup on a mouse board to fix the four limbs, the skin of the hind limbs was cut, the limbs were cut at ankle joints and femoral joints, and muscles and knee joints were removed. Precooled serum-free DMEM was sucked with a 1 mL syringe to rinse the bone marrow until a leg bone turned white, a rinsing solution was filtered with a 200-mesh filter membrane and then collected into a 15 mL centrifuge tube, centrifugation was performed at 500×g for 5 min, a supernatant was discarded, and a cell precipitate was resuspended with 1 mL of a red blood cell lysis buffer. After stomatocytosis was performed for 1 min, 5 mL of DMEM was added to stop the stomatocytosis, centrifugation was performed at 500×g for 5 min, a supernatant was discarded, and cells at a lower layer were resuspended overnight with DMEM containing 10% of FBS. Monocytes were collected by centrifugation and then resuspended with a DMEM culture medium containing 20% of FBS, and M-CSF was added at a final concentration of 25 ng/mL. The cells were inoculated into a 96-well plate at a density of 6×10^5, cultured in a cell incubator with a CO2 concentration of 5% at 37° C. for 48 h, and then cultured by adding M-CSF with a final concentration of 25 ng/mL into each well for 48 h until the monocytes were subjected to adherent culture and differentiation to obtain macrophages.
The expression level of an inflammatory factor TNF-α in a cell supernatant was detected according to an operation instruction of a commercial ELISA kit, and the cell viability at different administration concentrations of (+)3C-20 was determined according to an operation instruction of a CCK-8 kit.

[4] = 10 mg/kg i.p., intratracheal LPS
[5] = 50 mg/kg i.p., intratracheal LPS

## O=C(CCc1ccc(C(F)(F)F)cc1)O[C@@H]1C(=O)NCCc2c([nH]c3ccccc23)[C@H]1c1ccc(C(F)(F)F)cc1 [(+)-3C-20]
[1]; 10 mg/kg i.p.
  Content of TNF-α in a lung tissue homogenate (% of Model): 90.587 ± 7.374 ^ % of Model
  Area percentage of alveolar cells (%): 36.611 ± 1.64 %
[1]; [4]
  Change multiple of COX-2: 2.05 ± 0.38
  Change multiple of IL-1β: 13.04 ± 1.24
  Change multiple of IL-6: 17.12 ± 2.28
  Change multiple of TNF-α: 13.32 ± 0.94
  Change multiple of iNOS: 4.56 ± 0.4
[1]; 10 mg/kg intraperitoneal 3 days
  Lung index (%): 0.656 ± 0.007%
[1]; 10 mg/kg intraperitoneal
  Body weight (Day 1): 27.67 ± 0.38
  Body weight (Day 2): 27.44 ± 0.43
  Body weight (Day 3): 27.93 ± 0.53
[1]; 50 mg/kg i.p.
  Content of TNF-α in a lung tissue homogenate (% of Model): 61.408 ± 6.525 % of Model
  Area percentage of alveolar cells (%): 32.805 ± 0.814 %
[1]; [5]
  Change multiple of COX-2: 1.14 ± 0.24
  Change multiple of IL-1β: 11.94 ± 1.05
  Change multiple of IL-6: 15.11 ± 1.58
  Change multiple of TNF-α: 8.56 ± 1.21
  Change multiple of iNOS: 3.75 ± 0.72
[1]; 50 mg/kg intraperitoneal 3 days
  Lung index (%): 0.591 ± 0.011 %
[1]; 50 mg/kg intraperitoneal
  Body weight (Day 1): 27.63 ± 0.48
  Body weight (Day 2): 27.04 ± 0.48
  Body weight (Day 3): 27 ± 0.61
[1]; 50 mg/kg, intratracheal LPS
  pathological lung injury compared with the model group, in words: obviously relieving pathological lung injury
[2]
  survival rate of the model mice, in words: can obviously improve the survival rate
RAW264.7 cells
  Percentage of CCK-8 in a model group (%): 103.97 ± 3.88% and 95.04 ± 3.22%
[3]; 0.1 μM
  Percentage of CCK-8 in a model group (%): 100.35 ± 3.74%
[3]; 1 μM
  Percentage of CCK-8 in a model group (%): 96.71 ± 2.26%
[3]; 2.5 μM
  Percentage of CCK-8 in a model group (%): 97.49 ± 1.35%
[3]; 5 μM
  Percentage of CCK-8 in a model group (%): 89.87 ± 3.68%

Reference: patent US20240300959A1, “BALASUBRAMIDE DERIVATIVE AND USE THEREOF IN PREPARATION OF MEDICINE FOR TREATING ACUTE LUNG INJURY” (Guangdong Pharmaceutical University, priority 2023, published 2024)
